{"source": "PubChem BioAssay AID602415", "about": "(The Scripps Research Institute Molecular Screening Center, 2012)", "note": "Active and inactive are the calls of the source.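 Rule for the calls: active = substrate turnover at or below 60%; inactive = substrate turnover above 60%.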", "data": [{"target": "Diacylglycerol lipase-beta (Mus musculus) (UniProt Q91WC9)", "sequence (Q91WC9 whole entry, looked up)": "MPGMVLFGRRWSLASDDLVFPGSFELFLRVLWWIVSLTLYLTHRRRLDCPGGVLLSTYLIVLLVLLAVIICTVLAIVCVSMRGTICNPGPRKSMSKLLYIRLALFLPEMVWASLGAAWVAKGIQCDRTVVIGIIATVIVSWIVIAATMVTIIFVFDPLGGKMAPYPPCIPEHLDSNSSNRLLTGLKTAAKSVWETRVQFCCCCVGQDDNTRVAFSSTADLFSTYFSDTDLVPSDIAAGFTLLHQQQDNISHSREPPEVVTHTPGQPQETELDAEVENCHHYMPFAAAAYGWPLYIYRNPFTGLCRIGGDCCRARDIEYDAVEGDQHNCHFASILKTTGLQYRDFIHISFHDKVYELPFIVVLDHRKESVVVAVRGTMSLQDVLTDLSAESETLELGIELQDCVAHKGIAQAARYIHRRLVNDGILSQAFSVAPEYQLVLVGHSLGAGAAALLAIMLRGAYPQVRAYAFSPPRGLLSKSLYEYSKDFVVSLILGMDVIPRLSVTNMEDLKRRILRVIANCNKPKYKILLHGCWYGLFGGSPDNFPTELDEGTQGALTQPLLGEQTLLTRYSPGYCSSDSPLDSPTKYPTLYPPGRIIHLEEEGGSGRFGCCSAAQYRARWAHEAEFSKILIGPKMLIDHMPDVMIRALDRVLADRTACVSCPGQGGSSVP", "assay": "mouse DAGLb substrate turnover inhibition – biochemical, LC-MS, overexpressed mouse DAGLb (AID 602415)", "settings": "HEK293T membranes overexpressing mDAGLb, SAG turnover LC-MS; at 10 µM; stronger effect = lower value", "values": [{"compound": "CC(=O)c1c(C)oc2ccc(NS(=O)(=O)c3ccc(O)c(C(=O)O)c3)cc12", "substrate turnover": "23%"}, {"compound": "COc1ccccc1C=NNc1ccccc1[N+](=O)[O-]", "substrate turnover": "94% (inactive)"}, {"compound": "COc1ccccc1N=Nc1nc(-c2ccccc2)c(-c2ccccc2)[nH]1", "substrate turnover": "79% (inactive)"}, {"compound": "CN(C)c1ccc(N=Nc2ccccc2C(=O)OCC(=O)Nc2ccccc2C(F)(F)F)cc1", "substrate turnover": "67% (inactive)"}, {"compound": "COc1cc(/C=C2\\SC(=O)N(c3ccccc3Cl)C2=O)cc([N+](=O)[O-])c1O", "substrate turnover": "61% (inactive)"}, {"compound": "CCOc1cc(/C=C2\\N=C(SCC)SC2=O)cc([N+](=O)[O-])c1OC(C)=O", "substrate turnover": "78% (inactive)"}, {"compound": "CC1(C)CCCN(C(=O)c2ccc3c(c2NCCO)C(=O)c2ccccc2C3=O)C1", "substrate turnover": "20%"}, {"compound": "CC(=NNc1ccc(S(N)(=O)=O)cc1[N+](=O)[O-])c1ccc2c(c1)OCO2", "substrate turnover": "64% (inactive)"}, {"compound": "CCN(CC)c1ccc(N=Nc2nn(C)c(C)c2[N+](=O)[O-])cc1", "substrate turnover": "68% (inactive)"}, {"compound": "COc1ccc(C2/C=C\\CN(C(=O)c3ccc(C)cc3)[C@H](Cc3ccccc3)C(=O)N2Cc2ccc(F)cc2)cc1", "note": "(stereo partly specified)", "substrate turnover": "59%"}, {"compound": "Nc1nc(-c2ccccc2)c(N=Nc2cccnc2)s1", "substrate turnover": "53%"}, {"compound": "O=S(=O)(O)c1cccc(N=Nc2c(O)ccc3ccccc23)c1", "substrate turnover": "59%"}, {"compound": "Cc1ccc(C2C(/C=C3/SC(=S)NC3=O)=C(c3cccs3)Oc3ccccc32)cc1", "note": "(stereo unspecified)", "substrate turnover": "35%"}, {"compound": "O=C(NC(C(=O)NN=Cc1c2ccccc2cc2ccccc12)c1n[nH]c(=O)c2ccccc12)c1ccccc1", "note": "(stereo unspecified)", "substrate turnover": "64% (inactive)"}, {"compound": "CCOC(=O)/C(C#N)=C/C=C1\\C=Cc2ccccc2N1CC", "substrate turnover": "51%"}, {"compound": "Cc1ccc(Nc2nnc(SCc3nc4ccccc4c(=O)[nH]3)s2)cc1", "substrate turnover": "87% (inactive)"}, {"compound": "COc1ccc(S(=O)(=O)N2CCOCC2)cc1N=Nc1sc(N)nc1-c1ccccc1", "substrate turnover": "97% (inactive)"}, {"compound": "CCOc1ccc(Nc2nnc(SCc3nc4ccccc4c(=O)[nH]3)s2)cc1", "substrate turnover": "69% (inactive)"}, {"compound": "N#CC(C#N)=NNc1ccc([N+](=O)[O-])cc1", "substrate turnover": "65% (inactive)"}, {"compound": "O=C1CC(=C(c2ccccc2)c2ccccc2)C(=O)N1CCCCN1CCN(c2cccc(Cl)c2)CC1", "substrate turnover": "26%"}, {"compound": "Cc1ccc(-n2c(O)c(/C=N/Nc3ccc(S(=O)(=O)N4CCOCC4)cc3[N+](=O)[O-])c3ccccc3c2=O)c(C)c1", "substrate turnover": "56%"}, {"compound": "Nc1ccc(N=Nc2ccccc2)c2cccnc12", "substrate turnover": "88% (inactive)"}, {"compound": "O=C1S/C(=C\\c2ccc(O)c([N+](=O)[O-])c2)C(=O)N1c1ccccc1Cl", "substrate turnover": "76% (inactive)"}, {"compound": "O=C(O)c1cc(S(=O)(=O)Nc2cc(Cl)ccc2Oc2ccccc2)ccc1O", "substrate turnover": "53%"}, {"compound": "CCN(CCCNc1cc2c(c(N)c1S(=O)(=O)O)C(=O)c1ccccc1C2=O)c1ccccc1", "substrate turnover": "80% (inactive)"}, {"compound": "CC(=O)c1ccc(N2CCN(c3ccc(C(F)(F)F)cn3)CC2)cc1", "substrate turnover": "67% (inactive)"}, {"compound": "CCN(Cc1ccccc1)c1ccc(N=Nc2nn(C)c(C)c2[N+](=O)[O-])cc1", "substrate turnover": "97% (inactive)"}, {"compound": "CCC(=NNc1ccc([N+](=O)[O-])cc1[N+](=O)[O-])c1ccc(O)cc1", "substrate turnover": "67% (inactive)"}, {"compound": "Cc1ccc(-n2[nH]c(C)c(C=NNc3ccc([N+](=O)[O-])cc3[N+](=O)[O-])c2=O)cc1C", "substrate turnover": "57%"}, {"compound": "CC1(C)CC(=O)C2=C(C1)c1c(ccc3ccccc13)NC2c1cc([N+](=O)[O-])cc([N+](=O)[O-])c1O", "note": "(stereo unspecified)", "substrate turnover": "46%"}, {"compound": "N=C1C(c2nc3ccccc3s2)=C(O)CN1NC(=O)c1ccccc1[N+](=O)[O-]", "substrate turnover": "46%"}, {"compound": "NS(=O)(=O)c1ccc(N=Nc2c(O)ccc3ccccc23)cc1", "substrate turnover": "57%"}, {"compound": "COc1ccc(C=NNc2ccc(C(F)(F)F)cc2[N+](=O)[O-])cc1O", "substrate turnover": "76% (inactive)"}, {"compound": "O=C(NNc1c2ccccc2nc2ccccc12)c1cc2ccccc2cc1O", "substrate turnover": "65% (inactive)"}, {"compound": "Nc1nc(-c2ccccc2)c(N=Nc2cccc3ccccc23)s1", "substrate turnover": "95% (inactive)"}, {"compound": "CCCN1C(=O)/C(=C2/C=Cc3ccccc3N2CC)SC1=S", "substrate turnover": "68% (inactive)"}, {"compound": "O=C(NNc1c2ccccc2nc2ccccc12)c1ccccc1O", "substrate turnover": "56%"}, {"compound": "CC(=O)Nc1ccc(/C=N/Nc2ccc(S(=O)(=O)Nc3ccccc3C(=O)O)cc2[N+](=O)[O-])cc1", "substrate turnover": "84% (inactive)"}, {"compound": "Cc1cc(N(CCO)CCO)ccc1N=Nc1cc(F)ccc1F", "substrate turnover": "69% (inactive)"}, {"compound": "CC1=NN(c2ccccc2)C(=O)C1N=Nc1ccc(N)cc1", "note": "(stereo unspecified)", "substrate turnover": "65% (inactive)"}, {"compound": "O=C(NNc1c2ccccc2nc2ccccc12)c1ccc(O)cc1O", "substrate turnover": "79% (inactive)"}, {"compound": "O=[N+]([O-])c1ccc(N2CCN(c3ccccc3)CC2)cc1", "substrate turnover": "91% (inactive)"}, {"compound": "O=[N+]([O-])c1ccccc1NN=Cc1c[nH]c2ccccc12", "substrate turnover": "80% (inactive)"}, {"compound": "O=C1c2ccccc2C(=O)c2c1cccc2N1CCCC1", "substrate turnover": "79% (inactive)"}, {"compound": "c1ccc(N=NC2=NN(c3ccccc3)CS2)cc1", "substrate turnover": "61% (inactive)"}, {"compound": "Nc1cc([N+](=O)[O-])cc2oc(-c3ccccc3)cc12", "substrate turnover": "89% (inactive)"}, {"compound": "C/C(C/C(C)=C1/SC(=S)NC1=O)=C1\\SC(=S)NC1=O", "substrate turnover": "22%"}, {"compound": "CC1CC(C)CN(C(=O)c2ccc3c(c2NCCO)C(=O)c2ccccc2C3=O)C1", "note": "(stereo unspecified)", "substrate turnover": "78% (inactive)"}, {"compound": "Cn1cc(/C=C2\\SC(=O)NC2=S)c2ccccc21", "substrate turnover": "61% (inactive)"}, {"compound": "CCCOc1ccc(C(=O)NNC(=S)NC(=O)c2cc(-c3ccc(Cl)cc3)nc3ccccc23)cc1", "substrate turnover": "93% (inactive)"}, {"compound": "Nc1nc(-c2ccccc2)c(N=Nc2ccccc2Cl)s1", "substrate turnover": "39%"}, {"compound": "CC1=NN(c2ccccc2)C(=O)/C1=C\\C=C1/N(C)c2ccccc2C1(C)C", "substrate turnover": "74% (inactive)"}, {"compound": "COc1ccc(N/C=C2\\C(=O)CCc3c2oc2cc(Cl)c(O)c(Cl)c32)cc1", "substrate turnover": "16%"}, {"compound": "O=[N+]([O-])c1ccc(N2CCN(c3ccc(F)cc3)CC2)cc1", "substrate turnover": "74% (inactive)"}, {"compound": "Nc1nc(-c2ccccc2)c(N=Nc2ccc(Cl)cc2)s1", "substrate turnover": "23%"}, {"compound": "O=C(NC(C(=O)NN=Cc1cccc2ccccc12)c1n[nH]c(=O)c2ccccc12)c1ccccc1", "note": "(stereo unspecified)", "substrate turnover": "49%"}, {"compound": "Cc1ccc(C)c(NC(=O)/C(C#N)=C/c2cn(CC(=O)NCc3ccco3)c3ccccc23)c1", "substrate turnover": "93% (inactive)"}, {"compound": "NC(=O)CC(NC(=O)c1ccc(Br)cc1)c1ccc(NCCc2ccc(F)cc2)c([N+](=O)[O-])c1", "note": "(stereo unspecified)", "substrate turnover": "70% (inactive)"}, {"compound": "CN(C)c1ccc(N=Nc2ccc(S(N)(=O)=O)cc2)cc1", "substrate turnover": "59%"}, {"compound": "Cc1[nH]n2c(=O)cc(-c3ccc([N+](=O)[O-])cc3)nc2c1-c1ccccc1", "substrate turnover": "90% (inactive)"}, {"compound": "COc1cc(C=NNc2ccccc2[N+](=O)[O-])cc(OC)c1O", "substrate turnover": "60% (inactive)"}, {"compound": "CN(C)c1ccc(N=Nc2ccccc2C(=O)OCC(=O)NCC2CCCCC2)cc1", "substrate turnover": "79% (inactive)"}, {"compound": "Cc1ccc(NC2=C(Cl)C(=O)OC2OC(=O)c2ccco2)cc1C", "note": "(stereo unspecified)", "substrate turnover": "39%"}, {"compound": "CCOc1ccccc1N1CCN(C2=C(NS(=O)(=O)c3cccs3)C(=O)c3ccccc3C2=O)CC1", "substrate turnover": "79% (inactive)"}, {"compound": "CCCCCCCCCCC[C@@H](C[C@@H]1OC(=O)[C@H]1CCCCCC)OC(=O)[C@H](CC(C)C)NC=O", "substrate turnover": "0%"}, {"compound": "CC(=O)C1=C(O)C(=O)N(c2cc(C(C)(C)C)on2)C1c1ccc(Br)cc1", "note": "(stereo unspecified)", "substrate turnover": "26%"}, {"compound": "CN(C)c1ccc(N=Nc2ccc(S(=O)(=O)O)cc2)c2ccccc12", "substrate turnover": "66% (inactive)"}, {"compound": "CCSC1=NC(=O)/C(=C2/C=Cc3ccccc3N2CC)S1", "substrate turnover": "100% (inactive)"}, {"compound": "O=[N+]([O-])c1ccc(C=NNc2ccc3ccccc3c2)o1", "substrate turnover": "67% (inactive)"}, {"compound": "O=C(NN1C(=O)/C(=C/c2ccc(O)c([N+](=O)[O-])c2)SC1=S)c1ccccc1Cl", "substrate turnover": "59%"}, {"compound": "Cc1cc(N=Nc2ccccc2)c(NCC(O)C(O)C(O)CO)cc1C", "note": "(stereo unspecified)", "substrate turnover": "69% (inactive)"}, {"compound": "CC(C1SC(=S)NC1=O)C1SC(=S)NC1=O", "note": "(stereo unspecified)", "substrate turnover": "67% (inactive)"}, {"compound": "O=C1C(=C(c2ccccc2)c2ccccc2)Nc2ccccc21", "substrate turnover": "50%"}, {"compound": "CCOc1ccc2c(c1)-c1c(ssc1=S)C(C)(C)N2", "substrate turnover": "70% (inactive)"}, {"compound": "O=C1c2cccc(Cl)c2C(=O)c2c1cccc2N1CCCC1", "substrate turnover": "52%"}, {"compound": "Cc1cc(N=Nc2ccccc2C(=O)O)c(C)c(C)c1O", "substrate turnover": "89% (inactive)"}, {"compound": "Cc1oc2cc([N+](=O)[O-])c(O)c([N+](=O)[O-])c2c1C(=O)c1ccc(Br)cc1", "substrate turnover": "62% (inactive)"}, {"compound": "COc1cc(/C=C2/C(=O)NN(c3ccc(C)c(Cl)c3)C2=O)cc([N+](=O)[O-])c1O", "substrate turnover": "43%"}, {"compound": "O=C(O)COc1ccccc1C=NNc1ccc(S(=O)(=O)Nc2ccc(Cl)cc2)cc1[N+](=O)[O-]", "substrate turnover": "50%"}, {"compound": "Nc1ccc2c(c1)C(=O)c1cc(Cl)c(Cl)cc1-2", "substrate turnover": "47%"}, {"compound": "COC(=O)C1=C(C(=O)OC)SC(=C2C(=S)C(C)(C)N(C(=O)C3CC3)c3ccccc32)S1", "substrate turnover": "95% (inactive)"}, {"compound": "CC1(C)CC(=O)C2=C(C1)N=C1c3ccccc3C(=O)C1C2c1ccc(Cl)cc1", "note": "(stereo unspecified)", "substrate turnover": "82% (inactive)"}, {"compound": "COC(=O)c1ccccc1NCc1cc(=O)oc2cc(O)c(O)cc12", "substrate turnover": "48%"}, {"compound": "O=C1C(NS(=O)(=O)c2cccs2)=C(N2CCN(c3cccc(Cl)c3)CC2)C(=O)c2ccccc21", "substrate turnover": "81% (inactive)"}, {"compound": "COc1cccc(C(=O)NNc2c3ccccc3nc3ccccc23)c1", "substrate turnover": "71% (inactive)"}, {"compound": "NP(=O)(OCCCCc1ccccc1)Oc1ccccc1Cl", "note": "(stereo unspecified)", "substrate turnover": "25%"}]}]}
